Experimental data published in patent US9642861B2, “Methods of treating oral mucositis” (priority 2006, dated 2017).
“And” between values parts separate entries of the source, which are not always exact repeats. Equal entries are not always repeated.

Tested on: oral mucositis induced in hamsters by acute radiation (40 Gy to left buccal cheek pouch)
Experiment: ACT-03 (Example 2): acute radiation model of oral mucositis in hamsters, mucositis scoring
Type: in vivo, Syrian Golden Hamsters
Parameters: key to Mucositis score / Mucositis Scores: 0: Pouch completely healthy. No erythema or vasodilation.; 1: Light to severe erythema and vasodilation. No erosion of mucosa.; 2: Severe erythema and vasodilation. Erosion of superficial aspects of mucosa leaving denuded areas. Decreased stippling of mucosa.; 3: Formation of off-white ulcers in one or more places. Ulcers may have a yellow/gray due to pseudomembrane. Cumulative size of ulcers should equal about ¼ of the pouch. Severe erythema and vasodilation.; 4: Cumulative seize of ulcers should equal about ½ of the pouch. Loss of pliability. Severe erythema and vasodilation.; 5: Virtually all of pouch is ulcerated. Loss of pliability (pouch can only partially be extracted from mouth); peak mean mucositis score: scale not given here
Conditions: for Mucositis Scores: first study, single animal, blinded scorer; for Mucositis score: individual animal, 2 blinded scorers
Source text: The acute radiation model in hamsters, developed by the Principal Investigator, has proven to be an accurate, efficient and cost-effective technique to provide a preliminary evaluation of anti-mucositis compounds (9). The course of mucositis in this model is well defined and results in peak scores approximately 14-16 Days following radiation. The acute model has little systemic toxicity, resulting in few hamster deaths, thus permitting the use of smaller groups (N=7-8) for initial efficacy studies. It has also been used to study specific mechanistic elements in the pathogenesis of mucositis. Molecules that show efficacy in the acute radiation model may be further evaluated in the more complex models of fractionated radiation, chemotherapy, or concomitant therapy.
In this study, an acute radiation dose of 40 Gy on day 0 was administered locally to the cheek pouch. Clinically significant mucositis was observed on days 12 through 28.
Seventy-two male Syrian Golden Hamsters were divided randomly into 9 groups of 8 animals and given an acute radiation dose of 40 Gy directed to their left buccal cheek pouch. This was accomplished by anesthetizing the animals and everting the left buccal pouch, while protecting the rest of the animal with a lead shield. […] Mucositis was evaluated clinically starting on Day 6, and continued on alternate days until day 28.
The grade of mucositis was scored, beginning on day 6, and for every second day thereafter, through and including day 28 (for scoring scheme, see Table 6 and FIG. 8). The effect on mucositis of each drug treatment compared to ip vehicle-treated controls was assessed according to the following parameters:
The difference in the number of days hamsters in each group have ulcerative (score≧3) mucositis.
On each evaluation day, the number of animals with a blinded mucositis score of ≧3 in each drug treatment group was compared to the vehicle-treated control group. Differences were compared on a cumulative basis and statistical significance was determined by chi-square analysis. Efficacy, in this analysis, is defined as a significant reduction in the number of days that a group of animals had ulcerations (scores≧3) when compared to the control group.
For each evaluation day the scores of the control group were compared to those of the treated groups using non-parametric rank sum analysis. Treatment success was considered as a statistically significant lowering of scores in the treated group on 2 or more days from day 6 to day 28.
All seventy-two (72) male Syrian Golden Hamsters were given an acute radiation dose of 40 Gy directed to their left buccal cheek pouch. This was accomplished by anesthetizing the animals and everting the left buccal pouch, while protecting the rest of the animal with a lead shield. […] Mucositis was evaluated clinically starting on day 6, and continuing on alternate days until day 28. The study timeline is depicted in FIG. 7. Dose levels were determined based on the results of a previous acute toxicity study (data not published), and in the prior mucositis study of Example 1, shown in Table 5.
Mucositis was induced using a standardized acute radiation protocol. A single dose of radiation (40 Gy/dose) was administered to all animals on day 0. Radiation was generated with a 250 kilovolt potential (15-ma) source at a focal distance of 50 cm, hardened with a 0.35 mm Cu filtration system. Irradiation targeted the left buccal pouch mucosa at a rate of 3.2 Gy/minute. Prior to irradiation, animals were anesthetized with an intra-peritoneal injection of Ketamine (160 mg/kg) and Xylazine (8 mg/kg). The left buccal pouch was everted, fixed and isolated using a lead shield.
The mucositis score, weight change and survival were measured throughout the study as described above. For the evaluation of mucositis, the animals were anesthetized with isoflurane and the left pouch everted. […]

[1] = group 2: ip 30 mg/kg once daily day −1 to 3
[2] = group 2: ip 30 mg/kg qd day −1 to 3
[3] = group 3: ip 3 mg/kg bid day −1 to 3
[4] = group 4: ip 10 mg/kg bid day −1 to 3
[5] = group 4: ip 10 mg/kg twice daily day −1 to 3
[6] = group 5: ip 30 mg/kg bid day −1 to 3
[7] = group 5: ip 30 mg/kg twice daily day −1 to 3
[8] = group 6: ip 30 mg/kg once daily day 0 to 3
[9] = group 6: ip 30 mg/kg qd day 0 to 3
[10] = group 7: ip 30 mg/kg bid day 0 to 3
[11] = group 7: ip 30 mg/kg twice daily day 0 to 3
[12] = group 8: ip 30 mg/kg twice daily on day 0
[13] = group 9: ip 30 mg/kg bid day 0 & 7

## [Cl-].[Cl-].[Mn+2].c1cc2nc(c1)CN[C@@H]1CCCC[C@H]1NCCN[C@@H]1CCCC[C@H]1NC2 [M40403]
Group 8: 30 mg/kg/dose twice daily on day 0, day 6, 30 mg/kg
  Mucositis Scores: 0 (4×) and 1 (2×)
Group 8: 30 mg/kg/dose twice daily on day 0, day 8
  Mucositis Scores: 0
Group 8: 30 mg/kg/dose twice daily on day 0, day 10, 30 mg/kg
  Mucositis Scores: 0 (3×) and 1 (3×)
Group 8: 30 mg/kg/dose twice daily on day 0, day 12, 30 mg/kg
  Mucositis Scores: 2 (5×) and 1
Group 8: 30 mg/kg/dose twice daily on day 0, day 14, 30 mg/kg
  Mucositis Scores: 3 (4×) and 2 (2×)
Group 8: 30 mg/kg/dose twice daily on day 0, day 16, 30 mg/kg
  Mucositis Scores: 2 (4×) and 3 (2×)
Group 8: 30 mg/kg/dose twice daily on day 0, day 18, 30 mg/kg
  Mucositis Scores: 1 (3×) and 2 and 3 (2×)
Group 8: 30 mg/kg/dose twice daily on day 0, day 20, 30 mg/kg
  Mucositis Scores: 2 (2×) and 1 (2×) and 3 (2×)
Group 8: 30 mg/kg/dose twice daily on day 0, day 22
  Mucositis Scores: 2
Group 8: 30 mg/kg/dose twice daily on day 0, day 24, 30 mg/kg
  Mucositis Scores: 0 (3×) and 2 (2×) and 1
Group 8: 30 mg/kg/dose twice daily on day 0, day 26, 30 mg/kg
  Mucositis Scores: 1 (2×) and 0 (3×) and 2
Group 8: 30 mg/kg/dose twice daily on day 0, day 28, 30 mg/kg
  Mucositis Scores: 0 (3×) and 1 (3×)
Group 9: 30 mg/kg/dose twice daily on day 0 and on day 7, day 6, 30 mg/kg
  Mucositis Scores: 0 and 1
Group 9: 30 mg/kg/dose twice daily on day 0 and on day 7, day 8, 30 mg/kg
  Mucositis Scores: 0
Group 9: 30 mg/kg/dose twice daily on day 0 and on day 7, day 10, 30 mg/kg
  Mucositis Scores: 1 and 0
Group 9: 30 mg/kg/dose twice daily on day 0 and on day 7, day 12, 30 mg/kg
  Mucositis Scores: 2
Group 9: 30 mg/kg/dose twice daily on day 0 and on day 7, day 14, 30 mg/kg
  Mucositis Scores: 2
Group 9: 30 mg/kg/dose twice daily on day 0 and on day 7, day 16, 30 mg/kg
  Mucositis Scores: 3
Group 9: 30 mg/kg/dose twice daily on day 0 and on day 7, day 18, 30 mg/kg
  Mucositis Scores: 3
Group 9: 30 mg/kg/dose twice daily on day 0 and on day 7, day 20, 30 mg/kg
  Mucositis Scores: 2
Group 9: 30 mg/kg/dose twice daily on day 0 and on day 7, day 22, 30 mg/kg
  Mucositis Scores: 2 (2×) and 0
Group 9: 30 mg/kg/dose twice daily on day 0 and on day 7, day 24, 30 mg/kg
  Mucositis Scores: 0 and 1 (2×)
Group 9: 30 mg/kg/dose twice daily on day 0 and on day 7, day 26, 30 mg/kg
  Mucositis Scores: 2 and 1 (2×)
Group 9: 30 mg/kg/dose twice daily on day 0 and on day 7, day 28, 30 mg/kg
  Mucositis Scores: 1 and 2 and 0
[1]
  day of peak mean mucositis score: 16 days
  peak mean mucositis score: 2.8
[2]
  Chi Sq v control, days with mucositis score >=3: 4.4860
  Days <3 (animal days with a mucositis score below 3): 108
  Days >=3 (animal days with a mucositis score of three or more): 36
Group 2: ip 30 mg/kg qd day −1 to 3, 30 mg/kg
  % Days >=3 (percentage of animal days with a mucositis score of 3 or higher): 25%
[3]
  Chi Sq v control, days with mucositis score >=3: 5.3950
  Days <3 (animal days with a mucositis score below 3): 144
  Days >=3 (animal days with a mucositis score of three or more): 48
Group 3: ip 3 mg/kg bid day −1 to 3, 3 mg/kg
  % Days >=3 (percentage of animal days with a mucositis score of 3 or higher): 25%
Group 3: ip 3 mg/kg twice daily day −1 to 3
  peak mean mucositis score: 2.9
[4]
  Chi Sq v control, days with mucositis score >=3: 1.1996
  Days <3 (animal days with a mucositis score below 3): 136
  Days >=3 (animal days with a mucositis score of three or more): 56
Group 4: ip 10 mg/kg bid day −1 to 3, 10 mg/kg
  % Days >=3 (percentage of animal days with a mucositis score of 3 or higher): 29.2% and 29.17%
[5]
  day of peak mean mucositis score: 16 days
  peak mean mucositis score: 3.0
[6]
  Chi Sq v control, days with mucositis score >=3: 7.229
  Days <3 (animal days with a mucositis score below 3): 112
  Days >=3 (animal days with a mucositis score of three or more): 32
Group 5: ip 30 mg/kg bid day −1 to 3, 30 mg/kg
  % Days >=3 (percentage of animal days with a mucositis score of 3 or higher): 22.2% and 22.22%
[7]
  day of peak mean mucositis score: 16 days
  peak mean mucositis score: 2.8
Group 6, day 6
  Mucositis score: 1 and 0 (4×)
Group 6, day 8
  Mucositis score: 0 (4×) and 1
Group 6, day 10
  Mucositis score: 0 (4×) and 1
Group 6, day 12
  Mucositis score: 2 (4×) and 0
Group 6, day 14
  Mucositis score: 2 (3×) and 3 (2×)
Group 6, day 16
  Mucositis score: 4 and 3 (4×)
Group 6, day 18
  Mucositis score: 4 and 3 (2×) and 2 (2×)
Group 6, day 20
  Mucositis score: 4 and 3 (2×) and 2 (2×)
Group 6, day 22
  Mucositis score: 4 and 2 (2×) and 0 and 1
Group 6, day 24
  Mucositis score: 4 and 2 (4×)
Group 6, day 26
  Mucositis score: 3 and 2 (3×) and 1
Group 6, day 28
  Mucositis score: 2 (2×) and 0 and 1 (2×)
[8]
  day of peak mean mucositis score: 16 days
  peak mean mucositis score: 3.2
[9]
  Chi Sq v control, days with mucositis score >=3: 1.029
  Days <3 (animal days with a mucositis score below 3): 100
  Days >=3 (animal days with a mucositis score of three or more): 44
Group 6: ip 30 mg/kg qd day 0 to 3, 30 mg/kg
  % Days >=3 (percentage of animal days with a mucositis score of 3 or higher): 30.6% and 30.56%
Group 7, day 6
  Mucositis score: 0
Group 7, day 8
  Mucositis score: 0 (2×) and 1
Group 7, day 10
  Mucositis score: 1 and 0 (2×)
Group 7, day 12
  Mucositis score: 2
Group 7, day 14
  Mucositis score: 2
Group 7, day 16
  Mucositis score: 1 (2×) and 2
Group 7, day 18
  Mucositis score: 1 and 0 and 3
Group 7, day 20
  Mucositis score: 1 (2×) and 0
Group 7, day 22
  Mucositis score: 0 and 1 (2×) and 2
Group 7, day 24
  Mucositis score: 1 (2×) and 0 (2×)
Group 7, day 26
  Mucositis score: 1 (3×) and 0
Group 7, day 28
  Mucositis score: 1 (3×) and 0
[10]
  Chi Sq v control, days with mucositis score >=3: 38.3440
  Days <3 (animal days with a mucositis score below 3): 174
  Days >=3 (animal days with a mucositis score of three or more): 18
Group 7: ip 30 mg/kg bid day 0 to 3, 30 mg/kg
  % Days >=3 (percentage of animal days with a mucositis score of 3 or higher): 9.4% and 9.38%
[11]
  day of peak mean mucositis score: 16 days
  peak mean mucositis score: 2.2
Group 8: ip 30 mg/kg bid day 0
  Chi Sq v control, days with mucositis score >=3: 25.681
  Days <3 (animal days with a mucositis score below 3): 166
  Days >=3 (animal days with a mucositis score of three or more): 26
Group 8: ip 30 mg/kg bid day 0, 30 mg/kg
  % Days >=3 (percentage of animal days with a mucositis score of 3 or higher): 13.5% and 13.54%
[12]
  day of peak mean mucositis score: 14 days
  peak mean mucositis score: 2.4
[13]
  Chi Sq v control, days with mucositis score >=3: 19.113
  Days <3 (animal days with a mucositis score below 3): 142
  Days >=3 (animal days with a mucositis score of three or more): 26
Group 9: ip 30 mg/kg bid day 0 & 7, 30 mg/kg
  % Days >=3 (percentage of animal days with a mucositis score of 3 or higher): 15.5% and 15.48%
Group 9: ip 30 mg/kg twice daily on day 0 and day 7
  peak mean mucositis score: 2.4
